# Assay results published in EP1763350B1, “NICOTINAMIDE DERIVATIVES AND THEIR USE AS THERAPEUTIC AGENTS” (Xenon Pharmaceuticals Inc., priority 2004, dated 2006).
# Values joined by “and” are separate entries in the source; they are usually repeats but may differ in a detail not shown here. Identical values can stand only once.
# Biological target: T1, SCD (Mus musculus, UniProt P13516)
# T1 construct: from tissue; host or cells: mouse liver microsomes (induced for SCD1 expression)
# T1 sequence (P13516 1-355): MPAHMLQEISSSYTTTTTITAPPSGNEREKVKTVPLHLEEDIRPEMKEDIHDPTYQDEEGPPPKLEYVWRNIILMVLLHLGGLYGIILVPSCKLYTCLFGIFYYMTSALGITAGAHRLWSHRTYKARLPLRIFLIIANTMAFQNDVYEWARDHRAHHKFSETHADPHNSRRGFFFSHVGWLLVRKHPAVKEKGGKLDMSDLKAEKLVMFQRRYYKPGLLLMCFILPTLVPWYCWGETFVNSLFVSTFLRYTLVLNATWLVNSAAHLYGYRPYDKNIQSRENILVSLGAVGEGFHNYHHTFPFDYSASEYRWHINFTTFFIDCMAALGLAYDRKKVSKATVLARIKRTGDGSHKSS
# Test: SCD microsomal assay (tritiated stearoyl-CoA, release of labeled water), mouse liver microsomes
# Format: biochemical
# Details: % remaining SCD activity at 10 µM of test compound, 100 µg, preincubation 15 minutes, desaturation period 15 minutes at ambient temperature
# Description: The identification of compounds of the invention as SCD inhibitors was readily accomplished using the SCD enzyme and microsomal assay procedure described in Brownlie et al, supra.
# The identification of compounds of the invention as SCD inhibitors was readily accomplished using the SCD enzymes and microsomal assay procedure described in Brownlie et al, PCT published patent application, WO 01/62954. Briefly, mouse or human liver microsomes (induced for SCD1 expression and containing cytochrome b5 and cytochrome b5 reductase) and NADH are suspended in buffer with a compound of the invention, and reaction is initiated by addition of 0.025 mM tritiated stearoyl-CoA. This ligand is tritiated at the C9 and C10 position only. The reaction is allowed to proceed for between 5 and 20 minutes at ambient temperature, whereupon it is halted by addition of acid. Activated charcoal is then added, mixed, and centrifuged to separate labeled substrate from labeled water. An aliquot of supernatant is than tested for radioactivity using liquid scintillation counting. This is taken as a measure of delta-9 desaturase activity.
# Compounds were tested in mouse liver microsomes, 100 µg, preincubation with the test compound for 15 minutes at ambient temperature, a desaturation period for 15 minutes at ambient temperature, utilizing the large volume bench-top tube method. TABLE 3. SCD INHIBITORY ACTIVITY FOR SELECTED COMPOUNDS.
Structure (SMILES),activity at 10 µM [%],% Activity 10 µM
"CC(CCc1ccccc1)NC(=O)c1ccc(N2CCN(C(=O)c3ccc(Cl)cc3Cl)CC2)nc1 (centres unmarked) [6-[4-(2,4-Dichloro-benzoyl)-piperazin-1-yl]-N-(1-methyl-3-phenyl-propyl)-nicotinamide]",2.7,
"CCCCCNC(=O)c1ccc(N2CCN(C(=O)c3ccc(Cl)cc3Cl)CC2)nc1 [6-[4-(2,4-Dichloro-benzoyl)-piperazin-1-yl]-N-pentyl-nicotinamide]",1.2,
CCSCCNC(=O)c1ccc(N2CCN(C(=O)c3cc(OC)ccc3Br)CC2)nc1 [6-[4-(2-Bromo-5-methoxy-benzoyl)-piperazin-1-yl]-N-(2-ethylsulfanylethyl)-nicotinamide],1.4,
COc1ccc(Br)c(C(=O)N2CCN(c3ccc(C(=O)NCCc4ccccc4)cn3)CC2)c1 [6-[4-(2-Bromo-5-methoxy-benzoyl)-piperazin-1-yl]-N-phenethylnicotinamide],1.1,
CCCCOCCCNC(=O)c1ccc(N2CCN(C(=O)c3ccccc3Br)CC2)nc1 [6-[4-(2-Bromo-benzoyl)-piperazin-1-yl]-N-(3-butoxy-propyl)-nicotinamide],0.8,
CCOCCCNC(=O)c1ccc(N2CCN(C(=O)c3ccccc3Br)CC2)nc1 [6-[4-(2-Bromo-benzoyl)-piperazin-1-yl]-N-(3-ethoxy-propyl)-nicotinamide],1,
COCCCNC(=O)c1ccc(N2CCN(C(=O)c3ccccc3Br)CC2)nc1 [6-[4-(2-Bromo-benzoyl)-piperazin-1-yl]-N-(3-methoxy-propyl)-nicotinamide],1.2,
CCC(CC)C(=O)N1CCN(c2ccc(C(=O)NCCC(C)C)cn2)CC1 [6-[4-(2-Ethylbutyryl)-piperazin-1-yl]-N-(3-methylbutyl)-nicotinamide],1.7,
CCCCCNC(=O)c1ccc(N2CCN(C(=O)Cc3ccc4ccccc4c3)CC2)nc1 [6-[4-(2-Naphthalen-2-yl-acetyl)-piperazin-1-yl]-N-pentylnicotinamide],0.7,
CCC(C(=O)N1CCN(c2ccc(C(=O)NCCCc3ccccc3)cn2)CC1)c1ccccc1 (centres unmarked) [6-[4-(2-Phenyl-butyryl)-piperazin-1-yl]-N-(3-phenyl-propyl)-nicotinamide],3.6,
CCCC(C)NC(=O)c1ccc(N2CCN(C(=O)CCC3CCCCC3)CC2)nc1 (centres unmarked) [6-[4-(3-Cyclohexyl-propionyl)-piperazin-1-yl]-N-(1-methylbutyl)-nicotinamide],2.1,
CCSCCNC(=O)c1ccc(N2CCN(C(=O)CCC3CCCCC3)CC2)nc1 [6-[4-(3-Cyclohexyl-propionyl)-piperazin-1-yl]-N-(2-ethylsulfanyl-ethyl)-nicotinamide],1.4,
CC(C)CCNC(=O)c1ccc(N2CCN(C(=O)CCC3CCCCC3)CC2)nc1 [6-[4-(3-Cyclohexyl-propionyl)-piperazin-1-yl]-N-(3-methylbutyl)-nicotinamide],1.3,
"CC(C)CC(C)NC(=O)c1ccc(N2CCN(C(=O)c3ccccc3C(F)(F)F)CC2)nc1 (centres unmarked) [N-(1,3-Dimethylbutyl)-6-[4-(2-trifluoromethyl-benzoyl)-piperazin-1-yl]-nicotinamide]",1.8,
Cc1ccsc1C(=O)N1CCN(c2ccc(C(=O)NC(C)CCc3ccccc3)cn2)CC1 (centres unmarked) [N-(1-Methyl-3-phenyl-propyl)-6-[4-(3-methyl-thiophene-2-carbonyl)-piperazin-1-yl]-nicotinamide],3.4,
CCSCCNC(=O)c1ccc(N2CCN(C(=O)Cc3ccc(C)cc3)CC2)nc1 [N-(2-Ethylsulfanyl-ethyl)-6-[4-(2-p-tolylacetyl)-piperazin-1-yl]-nicotinamide],1.8,
"CCCCOCCCNC(=O)c1ccc(N2CCN(C(=O)c3ccc(C)cc3C)CC2)nc1 [N-(3-Butoxy-propyl)-6-[4-(2,4-dimethylbenzoyl)-piperazin-1-yl]-nicotinamide]",0.7,
Cc1ccccc1CC(=O)N1CCN(c2ccc(C(=O)NCCC(C)C)cn2)CC1 [N-(3-Methyl-butyl)-6-[4-(2-o-tolyl-acetyl)-piperazin-1-yl]-nicotinamide],3.2,
O=C(NCCCc1ccccc1)c1ccc(N2CCN(C(=O)c3ccccc3C(F)(F)F)CC2)nc1 [N-(3-Phenyl-propyl)-6-[4-(2-trifluoromethyl-benzoyl)-piperazin-1-yl]-nicotinamide],,3.9% and 1.3%
CCCCNC(=O)c1ccc(N2CCN(C(=O)C(CC)CC)CC2)nc1 [N-Butyl-6-[4-(2-ethylbutyryl)-piperazin-1-yl]-nicotinamide],2,
